In patent publication US8263642B2, “Antimicrobial compounds and methods of use thereof” (Vanderbilt University, priority 2008, dated 2012):

Tests used:
[1] = system: HssRS-dependent hrtAB expression; test: Luminescence-based assay to monitor HssRS-dependent hrtAB expression (phrtABlux reporter), Newman; type: cell-based, Staphylococcus aureus; conditions: Newman; for activation at 0.0825 µM: Staphylococcus aureus, NEWMAN, read-out: % Lumi, luminescence induced by the compound compared to the heme control (82.5 nM) in the same plate; for Luminescence: raw luminescence value obtained in a luminometer
Method: (§1) With reference to Table 1, “Luminescence” refers to the raw luminescence value obtained in a luminomter. “Control (82.5 nm)” refers to the luminescence value obtained from heme at 82.5 nM as a positive control in the same plate as the experimental. “% lum” is the percentage of luminescence induced by the compound as compared to the heme control in the same plate. […] All of these assays are described in the application. […] “N/T” indicates the test was not performed.
A hrtAB-driven expression system was created in the pXen vector system (Xenogen) (Francis, K. P., D. Joh, C. Bellinger-Kawahara, M. J. Hawkinson, T. F. Purchio, and P. R. Contag. 2000. Monitoring bioluminescent Staphylococcus aureus infections in living mice using a novel luxABCDE construct. Infect Immun 68:3594-3600). This vector contains a promoterless luxCDABE operon from Photorabdus luminescens which produces blue green light when expressed. The luxCDABE encodes for a fatty acid reductase (LuxCDE) that produces a long chain fatty aldehyde which, when combined with cellular flavin mononucleotide, is oxidized by a luciferase (LuxAB) to produce light. Therefore, this system is useful in that it bypasses the need for substrate addition and is capable of generating light in the absence of any added reagents. Furthermore, the luminescent signal produced by the combined activities of LuxAB and LuxCDE is of sufficient intensity to be visualized in unmanipulated intact bacteria.
To establish an assay that measures HssRS-dependent expression of luxCDABE, the promoter for hrtAB upstream of luxCDABE was cloned and transformed this vector (phrtABlux) into wildtype and ΔhssR S. aureus. A promoterless vector (plux) and a plasmid containing luxCDABE under the control of a constitutive promoter (psrtAlux) (Mazmanian, S. K., G. Liu, H. Ton-That, and O. Schneewind. 1999. “Staphylococcus aureus sortase, an enzyme that anchors surface proteins to the cell wall.” Science 285:760-763) were included as negative and positive controls, respectively. Initially, wildtype S. aureus harboring either plux, phrtABlux, or psrtAlux were plated on solid medium that either lacked heme or contained 4 μM heme. Only wildtype S. aureus containing psrtAlux produced light on solid media regardless of the presence or absence of heme. […] Light was not produced by bacteria containing plux in either condition.
To adapt this system for a HTS to measure ligand recognition by HssRS, luminescence of wildtype and ΔhssR harboring the above listed plasmids in liquid media with or without heme was measured. […] Taken together, these experiments establish a whole cell […] assay that can identify small molecule modifiers of HssRS. This screen, in some aspects, can identify molecules that can be used as molecular probes in structure-function analyses to determine the mechanism by which S. aureus sense host heme.
Upon staphylococcal exposure to heme, HssRS senses heme and activates expression of hrtAB. This process can be measured using a reporter assay that employs a vector encoding the light-producing luxCDABE operon under the control of the hrtAB promoter. This assay results in whole cell luminescence upon HssRS-dependent activation of hrtAB, forming the foundation for the development of an assay suitable for high-throughput screens for small molecule activators of HssRS.
To develop an automated HTS format, S. aureus wildtype and ΔhssR harboring reporter constructs (psrtAlux, phrtAlux, plux) can be grown for 15 hours at 37° C. in tryptic soy broth (TSB) containing 10 μg/ml chloramphenicol. The addition of chloramphenicol is useful to ensure that the staphylococci propagate the reporter plasmid upon cell division. Following growth, bacterial cultures can be normalized and 2×10^7 cells (approximately 2 μl) can be added to individual wells of black walled, clear bottomed, 96-well plates. […]

[2] = system: hrtAB-driven expression of the xylE reporter gene; test: XylE reporter assay (hrtAB promoter-xylE), Newman; type: cell-based, Staphylococcus aureus; conditions: for XylE (0.05): level of XylE induction at 0.05 uM of the compound; for XylE (0.5): level of XylE induction at 0.5 uM of the compound; for XylE (5.0): level of XylE induction at 5.0 uM of the compound; for XylE (50.0): level of XylE induction at 50.0 uM of the compound
Method: as §1
Compounds that activate HssRS-driven hrtAB expression in the luciferase-based screen can be subjected to two separate counter screens to confirm these compounds as active hits. First, compounds of interest can be tested for their ability to activate expression of hrtAB in the XylE expression assay described hereinbelow. This is an in vitro assay that measures hrtAB-driven expression of the xylE reporter gene. The XylE-based reporter assay utilizes slightly more manipulations than the primary luciferase-based screen. […] It should be appreciated that a shortcoming of this counter screen is that it measures reporter gene expression, which is a similar activity as that measured in the primary assay. To address this shortcoming, compounds that are positive in both XylE- and luciferase-based assays can be subjected to a second counter screen as described hereinbelow.
S. aureus strains harboring the appropriate reporter construct were inoculated into 500 μl of TSB containing 10 μg/ml chloramphenicol in 1.5 ml tubes. Cultures were grown O/N at 37° C. with shaking. Bacteria were pelleted by centrifugation and spent medium was aspirated. The pellet was washed once with 500 μl of 20 mM potassium phosphate, pH 7.6, and resuspended in 150 μl of 100 mM potassium phosphate buffer, pH 8.0, 10% (v/v) acetone, 25 μg/ml lysostaphin. After 20 minute incubation at 37° C. and 5 minute incubation on ice, samples were centrifuged at 20,000 g for 30 minutes at 4° C. 1-10 μl of supernatant was added to a 96-well plate and 200 μl of 100 mM potassium phosphate, pH 8.0, 0.2 mM pyrocatechol was added to each well. Formation of 2-hydroxymuconic semialdehyde was tracked by measuring the absorbance at 375 nm every minute for 30 minutes on a Varian MP 50 microplate reader. Protein concentration in samples was determined by BCA (Pierce). One unit of specific activity of XylE in a sample is defined as the formation of 1 nmol of 2-hydroxymuconic semialdehyde per minute per milligram of cellular protein at 30° C. (Chien, Y., Manna, A. C., Projan, S. J., and Cheung, A. L. 1999, “SarA, a global regulator of virulence determinants in Staphylococcus aureus, binds to a conserved motif essential for sar-dependent gene regulation. J. Biol. Chem. 274, 37169-37176).
The hrtAB intergenic region was fused to the xylE structural gene by PCR-SOE. In the first reaction, primer P1B:[…] and P2B:[…] were used to amplify the hrtAB intergenic region from S. aureus strain Newman genomic DNA. In the second PCR reaction primers P3B:[…] and P4B:[…] were used to amplify the xylE structural gene using pALC1639 template DNA (provided by Dr. Ambrose Cheung) and PCR product purified using a Qiagen gel extraction kit. For the PCRSOE reaction, a 1:300 dilution of purified reaction 1 and reaction 2 PCR products was mixed and amplified by PCR using […]. This yielded a construct in which the hrtAB intergenic region is fused to the xylE gene in such a manner that the position of the start codon for xylE corresponds to the position of the start codon for […] in the hrtAB locus. The hrtAB promoter-xylE fusion DNA was then subcloned into pOS1. As a control we also constructed a promoterless xylE vector. The xylE gene was amplified from pACL1639 template DNA using the primers P1C:[…] and P2C:[…] and then cloned into the pOS1 vector.

Compound | activation at 0.0825 µM [1] [%] | Luminescence [1] | XylE (0.05) [2] | XylE (0.5) [2] | XylE (5.0) [2] | XylE (50.0) [2]
C=CCc1ccccc1Oc1ccc(C(F)(F)F)cn1 | 27.5 | 1474 | 0.08 | 0.02 | 0.07 | 0.09
O=[N+]([O-])c1ccc(O)c(/C=N/c2ccccc2-c2nc3ccccc3s2)c1 | 630 | 2904 | 1 | 50 | 1 | 1
CCN(CC)S(=O)(=O)c1cc(C(=O)NC2CCCCCC2)ccc1Cl | 759 | 2080 | 1 | 1 | 1 | 0.05
CCOC(=O)c1c(C)[nH]c2c1-c1cc(Br)ccc1C(=O)C2=O | 240 | 2896 | 1 | 1 | 0.09 | 0.3
COc1cccc(-c2cc(C(=O)Nc3ccccc3C(F)(F)F)c3ccccc3n2)c1 | 450 | 1642 |  | 0 | 0.05 | 0.09
O=C(Nc1ccc(C(F)(F)F)cc1)c1cc(S(=O)(=O)NCc2ccc(F)cc2)ccc1F | 493 | 1710 |  | 0 | 0.03 | 0.03
O=c1oc2ccccc2c(O)c1C(c1ccc([N+](=O)[O-])o1)c1c(O)c2ccccc2oc1=O | 559 | 1939 |  | 0.02 | 0.07 | 0
COc1ccc(/C=C/c2nc3ccccc3c(=O)n2-c2cccc(C(=O)O)c2)cc1 | 705 | 1995 |  | 0.04 | 0.08 | 0.05
COc1cc(OC)cc(C(=O)Nc2ccc(-c3nc4cc(C)ccc4o3)cc2)c1 | 345 | 1765 |  | 0.1 | 0.6 | 0
COc1cc(/C=C/c2ccc3cccc(O)c3n2)c(Cl)cc1O | 533 | 1722 |  | 1 | 0.5 | 0
Oc1ccccc1-c1nc(NC2CCCC2)c2ccccc2n1 | 591 | 1637 |  | 0.09 | 0.02 | 0
O=C(Nc1ccncc1)c1ccc(COc2cc(Cl)ccc2Cl)cc1 | 597 | 1845 |  | 1 | 0.4 | 1
O=C(NC(=S)Nc1ccc(Oc2ccccc2)cc1)c1cccs1 | 415 | 1774 |  | 0.01 | 0.09 | 0.01
O=C(Nc1ccncc1)c1ccc(COc2ccccc2Cl)cc1 | 478 | 1589 |  | 0.09 | 0 | 1
COC(=O)CCNc1nc(-c2ccc(Br)cc2)nc2ccccc12 | 484 | 1714 |  | 0.03 | 0.02 | 0.8
c1cc(-c2ccc3nsnc3c2)c2cc3nsnc3cc2c1 | 347 | 1630 |  | 0.06 | 0 | 0.9
Cc1cccc(C(=O)N2N=C(c3cccc(Br)c3)CC2(C)C(F)(F)F)c1 (centres unmarked) | 572 | 1683 |  | 0.04 | 0.08 | 0.1
Cc1cc(C)c(S(=O)(=O)Nc2ccc(O)c(-c3c(O)ccc4ccccc34)c2)cc1C | 354 | 1574 |  | 0.03 | 0.06 | 0.05
O=C(Nc1ccccc1O)c1cccc(N2C(=O)c3ccc([N+](=O)[O-])cc3C2=O)c1 | 675 | 1850 |  | 0.02 | 0 | 0.03
O=C(COc1nsnc1N1CCOCC1)Nc1ccccc1 | 207 | 1594 |  | 0.05 | 0.02 | 0.03
COC(=O)C1=C(C)NC(=O)NC1c1cn(-c2ccccc2)nc1-c1ccc(OC)c(OC)c1 (centres unmarked) | 866 | 1854 |  | 0.04 | 0.03 | 0.05
Cc1ccc(CNC(=O)c2ccc(CSCc3ccccc3Cl)o2)cc1 | 192 | 1603 |  | 0.08 | 0.7 | 0.8
Cc1ccc(Nc2nc(-c3ccccc3O)nc3ccccc23)cc1 | 360 | 1922 |  | 0.04 | 0.1 | 0.08
